Results as given in patent US20250282799A1, “SUBSTITUTED PYRIDO[4,3-d]PYRIMIDINES AS KRAS MODULATORS” (Alterome Therapeutics, Inc., priority 2023, published 2025).

What was measured:
[1] = test system: KRAS G12V dependent lung adenocarcinoma cell line, NCI-H441; assay: Cellular pERK (Thr202/Tyr204) FRET/HTRF assay; assay type: cell-based; conditions: Homo sapiens
Method in brief: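 Using a mix-and-read HTRF kit, phospho-ERK (Thr202/Tyr204) was detected in NCI-H441 lysates following 1 hr compound incubation at 37 °C, 5% CO2. Cells had been seeded overnight beforehand, and IC50 was derived by curve fitting.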

KRAS (G12D)/CRAF = KRAS (G12D)/CRAF (Homo sapiens (Human), UniProt P01116, G12D); assay: TR-FRET biochemical KRAS:CRAF protein:protein interaction assay, KRAS (G12D); assay type: binding; conditions: GMPPNP loaded Biotin-KRAS (G12D), FLAG CRAF RBD; read-out: TR-Fret_PPI KRAS (G12D)/CRAF IC50
Procedure: (§1) The effect of test compounds on KRAS and CRAF protein: protein interaction (PPI) was measured by time resolved fluorescence resonance energy transfer (TR-FRET) Ras binding domain (RBD) assay, which uses a signal generated through fluorescent resonance energy transfer between a donor and an acceptor molecule when in close proximity to each other. Interference from buffer, media, etc. is reduced by dual-wavelength detection; the energy pulse from the excitation source is followed by a time delay, which allows interfering short-lived fluorescence to decay (Degorce et al. 2009).
(§2) The KRAS: CRAF PPI assay can be utilized to identify KRAS ‘ON’ state inhibitors, as the KRAS protein is loaded with GMPPNP (a non-hydrolyzable GTP analog), which represents the active KRAS ‘ON’ state. FLAG-tagged CRAF RBD binding to the GMPPNP loaded biotin-tagged KRAS will result in a fluorescence energy transfer from the donor (Tb-anti-FLAG, emission 620 nm) to the acceptor (SA-XL665, emission 665 nm). Disruption of KRAS and CRAF binding will reduce the TR-FRET signal.
(§3) Test compound was dissolved in DMSO to create a 1 mM stock solution. A 45 μL volume of stock solution was transferred to a 384well polypropylene plate. A 3fold, 10point dilution was performed by transferring 15 μL of test compound solution into 30 μL of DMSO.
(§4) Assay buffer A was prepared with […] Hepes, pH7.3, 0.002% Tween 20, 0.1% BSA, […] NaCl, 5 mM MgCl2, and 10 uM GMP-PNP. 4× KRAS Solution was prepared with 80 nM of Biotin-KRAS (G12D/V), GMPPNP loaded or Biotin-KRAS (WT), GMPPNP loaded protein in assay buffer A. 4× Raf RBD Solution was prepared with 400 nM FLAG CRAF RBD in assay buffer A. 2× Detection Mixture was prepared with 2 nM Tb-anti-FLAG antibody and 10 nM and 10 nM SA-XL665 in assay buffer A.
(§5) A volume of 100 nL of 100× test compound working solution or DMSO vehicle control solution was dispensed to each well (duplicate for each concentration) of a 384-well ProxiPlate Plus assay plate. A volume of 2.5 μL of 4× KRAS Solution was added to each well of the assay plate for a final concentration of 20 nM Biotin-KRAS (G12D/V),GMPPNP loaded or 20 nM Biotin-KRAS (WT), GMPPNP. For low control, add 2.5 μL of assay buffer (no KRAS protein). Pre-incubate assay plate for 30 minutes at room temperature. Following pre-incubation of test compound or DMSO with Biotin-KRAS (G12D/V),GMPPNP loaded or Biotin-KRAS (WT),GMPPNP, a volume of 2.5 μL of 4× FLAG cRAF RBD Solution was added to each well of the assay plate for a final concentration of 100 nM FLAG CRAF RBD. The assay plate was subjected to centrifuge at 1000 rpm for 1 minute and pre-incubate assay plate for 150 minutes at room temperature. Following the pre-incubation with FLAG cRAF RBD, a volume of 5 μl of 2× Detection Mixture was added to each well of the assay plate for a final concentration of 1 nM Tb-anti-FLAG and 5 nM SA-XL665. The assay plate was centrifuged at 1000 rpm for 1 minute and incubated for 90 minutes at room temperature. TR-FRET signal was measured on a BioTek Synergy Neo2 microplate reader (excitation at 340 nm, emission at 665 nn and 620 nm).
(§6) TR-FRET ratios were calculated by dividing the acceptor emission value (665 nm) by the donor emission value (620 nm) for each sample.
(§7) Percent inhibition was calculated by multiplying the normalized TR-FRET ratio by 100, where TR-FRET ratio^HIGH was the TR-FRET ratio obtained from wells with 1% DMSO and complete reaction mixture, TR-FRET ratio^LOW was the ratio obtained from wells with 1% DMSO and reaction mixture without KRAS protein and TR-FRET ratio^SAMPLE was the TR-FRET ratio from wells with test compound and complete reaction mixture. The IC50 values were calculated from normalized TR-FRET ratios with the Levenberg-Marquardt 4 parameter fitting procedure.
(§8) This assay quantifies the interaction of a KRAS mutant protein (e.g., G12V) with the CRAF Ras-binding domain (RBD). […]

KRAS (G12V)/CRAF = KRAS (G12V)/CRAF (Homo sapiens (Human), UniProt P01116, G12V); assay: TR-FRET biochemical KRAS:CRAF protein:protein interaction assay, KRAS (G12V); assay type: binding; conditions: GMPPNP loaded Biotin-KRAS (G12V), FLAG CRAF RBD; read-out: TR-Fret_PPI KRAS (G12V)/CRAF IC50
Procedure: as §1, §2, §3, §4, §5, §6, §7, §8

[2] = NCI-H441, pERK HTRF, NCI-H441 cells (KRAS G12V)
[3] = NCI-H441, cellular pERK (Thr202/Tyr204) HTRF, NCI-H441 cells

Chain of KRAS (G12V)/CRAF (P01116-2 other isoform, or with tags, fused parts or gaps G12V): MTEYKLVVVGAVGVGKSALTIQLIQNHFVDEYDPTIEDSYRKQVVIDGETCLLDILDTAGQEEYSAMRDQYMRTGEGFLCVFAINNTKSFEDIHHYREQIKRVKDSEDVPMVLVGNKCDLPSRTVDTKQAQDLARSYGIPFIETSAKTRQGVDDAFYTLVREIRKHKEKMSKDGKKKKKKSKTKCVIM
Chain of KRAS (G12D)/CRAF (P01116-2 other isoform, or with tags, fused parts or gaps G12D): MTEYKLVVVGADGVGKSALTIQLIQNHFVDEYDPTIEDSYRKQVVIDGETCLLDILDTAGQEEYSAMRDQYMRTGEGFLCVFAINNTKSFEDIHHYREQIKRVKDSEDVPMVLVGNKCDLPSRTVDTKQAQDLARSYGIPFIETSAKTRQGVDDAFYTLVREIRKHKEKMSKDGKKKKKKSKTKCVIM

SMILES	IC50 [1, 2]	IC50 (KRAS (G12D)/CRAF)	IC50 (KRAS (G12V)/CRAF)	IC50 [1, 3]
C#Cc1c(F)ccc2cc(N)cc(-c3ncc4c(N5CCCC[C@H]6C[C@H]65)nc(OC[C@@]56CCCN5C[C@H](F)C6)nc4c3F)c12 [Example 5, 4-(4-((1R,7S)-2-azabicyclo[5.1.0]octan-2-yl)-8-fluoro-2-(((2R,7aS)-2-fluorotetrahydro-1H-pyrrolizin-7a(5H)-yl)methoxy)pyrido[4,3-d]pyrimidin-7-yl)-5-ethynyl-6-fluoronaphthalen-2-amine]	< 50 nM	24.2 nM	234 nM	–
[2H]C([2H])(Oc1nc(N2CCCC[C@H]3C[C@H]32)c2cnc(-c3cc(N)cc4cc(F)c(F)c(C#C)c34)c(F)c2n1)[C@@]12CCCN1C[C@H](F)C2 [Example 8, 4-(4-((1R,7S)-2-azabicyclo[5.1.0]octan-2-yl)-8-fluoro-2-(((2R,7aS)-2-fluorotetrahydro-1H-pyrrolizin-7a(5H)-yl)methoxy-d2)pyrido[4,3-d]pyrimidin-7-yl)-5-ethynyl-6,7-difluoronaphthalen-2-amine]	< 50 nM	27.5 nM	213 nM	–
[2H]C([2H])(Oc1nc(N2CCCC[C@H]3[C@@H](F)[C@H]32)c2cnc(-c3cc(N)cc4cc(F)c(F)c(C#C)c34)c(F)c2n1)[C@@]12CCCN1C[C@H](F)C2 [Example 13, 5-Ethynyl-6,7-difluoro-4-(8-fluoro-4-((1S,7R,8R)-8-fluoro-2-azabicyclo[5.1.0]octan-2-yl)-2-(((2R,7aS)-2-fluorotetrahydro-1H-pyrrolizin-7a(5H)-yl)methoxy-d2)pyrido[4,3-d]pyrimidin-7-yl)naphthalen-2-amine]	50 to 500 nM	430 nM	2830 nM	–
[2H]C([2H])(Oc1nc(N2CCCC[C@@H]3[C@H](F)[C@@H]32)c2cnc(-c3cc(N)cc4cc(F)c(F)c(C#C)c34)c(F)c2n1)[C@@]12CCCN1C[C@H](F)C2 [Example 14, 5-Ethynyl-6,7-difluoro-4-(8-fluoro-4-((1R,7S,8S)-8-fluoro-2-azabicyclo[5.1.0]octan-2-yl)-2-(((2R,7aS)-2-fluorotetrahydro-1H-pyrrolizin-7a(5H)-yl)methoxy-d2)pyrido[4,3-d]pyrimidin-7-yl)naphthalen-2-amine]	500 to 10000 nM	≥ 10000 nM	≥ 10000 nM	–
[2H]C([2H])(Oc1nc(N2CCCC[C@@H]3[C@@H](F)[C@@H]32)c2cnc(-c3cc(N)cc4cc(F)c(F)c(C#C)c34)c(F)c2n1)[C@@]12CCCN1C[C@H](F)C2 [Example 15, 5-Ethynyl-6,7-difluoro-4-(8-fluoro-4-((1R,7S,8R)-8-fluoro-2-azabicyclo[5.1.0]octan-2-yl)-2-(((2R,7aS)-2-fluorotetrahydro-1H-pyrrolizin-7a(5H)-yl)methoxy-d2)pyrido[4,3-d]pyrimidin-7-yl)naphthalen-2-amine]	500 to 10000 nM	≥ 10000 nM	≥ 10000 nM	–
[2H]C([2H])(Oc1nc(N2CCOC[C@H]3C[C@H]32)c2cnc(-c3cc(N)cc4cc(F)c(F)c(C#C)c34)c(F)c2n1)[C@@]12CCCN1C[C@H](F)C2 [Example 62, 4-(4-((1R,7S)-5-oxa-2-azabicyclo[5.1.0]octan-2-yl)-8-fluoro-2-(((2R,7aS)-2-fluorotetrahydro-1H-pyrrolizin-7a(5H)-yl)methoxy-d2)pyrido[4,3-d]pyrimidin-7-yl)-5-ethynyl-6,7-difluoronaphthalen-2-amine]	50 to 500 nM	62.6 nM	443 nM	–
[2H]C([2H])(Oc1nc(N2CC=CC[C@H]3[C@H](F)[C@H]32)c2cnc(-c3cc(N)cc4cc(F)c(F)c(C#C)c34)c(F)c2n1)[C@@]12CCCN1C[C@H](F)C2 [Example 137, 5-Ethynyl-6,7-difluoro-4-(8-fluoro-4-((1S,7R,8S)-8-fluoro-2-azabicyclo[5.1.0]oct-4-en-2-yl)-2-(((2R,7aS)-2-fluorotetrahydro-1H-pyrrolizin-7a(5H)-yl)methoxy-d2)pyrido[4,3-d]pyrimidin-7-yl)naphthalen-2-amine]	–	27.4 nM	155 nM	< 50 nM
[2H]C([2H])(Oc1nc(N2CC=CC[C@@H]3[C@@H](F)[C@@H]32)c2cnc(-c3cc(N)cc4cc(F)c(F)c(C#C)c34)c(F)c2n1)[C@@]12CCCN1C[C@H](F)C2 [Example 138, 5-ethynyl-6,7-difluoro-4-(8-fluoro-4-((1R,7S,8R)-8-fluoro-2-azabicyclo[5.1.0]oct-4-en-2-yl)-2-(((2R,7aS)-2-fluorotetrahydro-1H-pyrrolizin-7a(5H)-yl)methoxy-d2)pyrido[4,3-d]pyrimidin-7-yl)naphthalen-2-amine]	–	≥ 10000 nM	≥ 10000 nM	500 to 10000 nM
[2H]C([2H])(Oc1nc(N2CCOC[C@@H]3[C@@H](F)[C@@H]32)c2cnc(-c3cc(N)cc4ccc(F)c(C#C)c34)c(F)c2n1)[C@@]12CCCN1C[C@H](F)C2 [Example 221, 5-ethynyl-6-fluoro-4-(8-fluoro-4-((1R,7R,8R)-8-fluoro-5-oxa-2-azabicyclo[5.1.0]octan-2-yl)-2-(((2R,7aS)-2-fluorotetrahydro-1H-pyrrolizin-7a(5H)-yl)methoxy-d2)pyrido[4,3-d]pyrimidin-7-yl)naphthalen-2-amine]	–	> 3000 nM	> 3000 nM	500 to 10000 nM
[2H]C([2H])(Oc1nc(N2CCOC[C@H]3[C@H](F)[C@H]32)c2c(OC)nc(-c3cc(N)cc4ccc(F)c(C#C)c34)c(F)c2n1)[C@@]12CCCN1C[C@H](F)C2 [Example 222, 5-Ethynyl-6-fluoro-4-(8-fluoro-4-((1S,7S,8S)-8-fluoro-5-oxa-2-azabicyclo[5.1.0]octan-2-yl)-2-(((2R,7aS)-2-fluorotetrahydro-1H-pyrrolizin-7a(5H)-yl)methoxy-d2)-5-methoxypyrido[4,3-d]pyrimidin-7-yl)naphthalen-2-amine]	–	11.7 nM	53.7 nM	< 50 nM
[2H]C([2H])(Oc1nc(N2CCOC[C@@H]3[C@@H](F)[C@@H]32)c2c(OC)nc(-c3cc(N)cc4ccc(F)c(C#C)c34)c(F)c2n1)[C@@]12CCCN1C[C@H](F)C2 [Example 223, 5-ethynyl-6-fluoro-4-(8-fluoro-4-((1R,7R,8R)-8-fluoro-5-oxa-2-azabicyclo[5.1.0]octan-2-yl)-2-(((2R,7aS)-2-fluorotetrahydro-1H-pyrrolizin-7a(5H)-yl)methoxy-d2)-5-methoxypyrido[4,3-d]pyrimidin-7-yl)naphthalen-2-amine]	–	3000 nM	3000 nM	500 to 10000 nM
